Experimental data reported in paper PMC3596500 (Pharmaceutical research, 2012).
Entries after “also recorded” stand apart in the source; their conditions may differ. Where two headings read alike, the source gives them in different places. Values belong to the molecule of their own block, whether it stands above or below them. Square brackets hold non-standard residues; d marks the D form. Peptide text beside a SMILES is read from it. Sar = CNCC(=O)O

Experiments:
PepT1 [1] = biological target: T1, PepT1 (Mus musculus, UniProt Q9JIP7); conditions: 25 mM inhibitor co-perfused with 10 μM cefadroxil, pH 6.5, wild-type mice
T1 sequence (Q9JIP7 1-709): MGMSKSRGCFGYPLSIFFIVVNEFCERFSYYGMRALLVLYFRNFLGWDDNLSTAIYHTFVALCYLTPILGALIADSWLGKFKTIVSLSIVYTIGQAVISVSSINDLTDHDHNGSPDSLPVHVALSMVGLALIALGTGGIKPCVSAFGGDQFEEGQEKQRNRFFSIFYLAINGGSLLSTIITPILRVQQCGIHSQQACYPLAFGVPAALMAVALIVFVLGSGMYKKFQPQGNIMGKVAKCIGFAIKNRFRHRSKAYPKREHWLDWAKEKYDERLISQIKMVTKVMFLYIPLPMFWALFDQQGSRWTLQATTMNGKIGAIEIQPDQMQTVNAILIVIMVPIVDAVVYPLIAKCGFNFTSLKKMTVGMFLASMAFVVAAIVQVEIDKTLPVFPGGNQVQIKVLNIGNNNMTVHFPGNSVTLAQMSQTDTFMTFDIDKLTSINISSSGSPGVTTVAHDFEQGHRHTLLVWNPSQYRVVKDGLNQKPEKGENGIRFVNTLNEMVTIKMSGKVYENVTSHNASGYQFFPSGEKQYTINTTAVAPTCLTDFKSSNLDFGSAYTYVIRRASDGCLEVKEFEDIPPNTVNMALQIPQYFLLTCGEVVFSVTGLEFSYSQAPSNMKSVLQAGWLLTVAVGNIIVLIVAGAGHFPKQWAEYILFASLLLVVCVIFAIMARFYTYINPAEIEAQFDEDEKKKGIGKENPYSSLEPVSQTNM

PepT1 [2] = conditions: cited from earlier work
Caco-2 cells = conditions: cited from earlier work
PepT1 [3] = conditions: PepT1 cRNA-injected Xenopus oocytes; cited from earlier work
[4] = in situ perfusions in proximal small intestine, cited from earlier work
PepT1 [5] = biological target: T1, PepT1; conditions: jejunum, wild-type mice, pH 6.5
[6] = mouse, in vivo, po
PepT1 [7] = assay type: in vivo, mice; conditions: for Peff: 10 μM cefadroxil, pH 6.5
PepT1 [8] = biological target: T1, PepT1; assay type: in vivo, mice; conditions: wild-type mice, 10 μM cefadroxil, pH 6.5
[9] = cited from earlier work
PepT1 [10] = biological target: T1, PepT1; assay: pH-dependent jejunal permeability of cefadroxil, in situ perfusion; assay type: in vivo; conditions: 10 μM cefadroxil, jejunum, wild-type mice, pH 5.5 to 7.5
[11] = cited from earlier work; remark: listed apart in the source
[12] = after oral dipeptide administration; cited from earlier work
PepT1 [13] = biological target: T1, PepT1; assay: Co-perfusion of cefadroxil with dimethyl-amiloride; conditions: 0.1 mM DMA co-perfused with 10 μM cefadroxil, pH 6.5, wild-type mice

effect on jejunal effective permeability of cefadroxil (PepT1 [1]): significantly decreased
Compound: NCC(=O)N1CCC[C@H]1C(=O)O [GlyPro, glycylproline] (H-Gly-Pro-OH)

K′m (apparent) (PepT1 [5]; based on bulk fluid (inlet) concentrations): 3.8 ± 1.2 mM
Vmax (intrinsic) (PepT1 [5]; referenced to membrane surface concentration Cw): 4.5 ± 0.3 nmol/cm^2/sec
Tmax increase, PepT1 knockout vs wild-type [6]: ~4 fold
Peff (PepT1 [7]; PepT1 knockout mice, colon): 3.2 ×10⁻⁶ cm/s
Peff (PepT1 [7]; PepT1 knockout mice, ileum): 4.2 ×10⁻⁶ cm/s
Peff (PepT1 [7]; PepT1 knockout mice, jejunum): 9 ×10⁻⁶ cm/s
difference between genotypes in the permeability in colon (PepT1 [7]; colon, wild-type vs PepT1 knockout): no significant difference
permeability in PepT1 knockout mice as compared to wild-type mice (PepT1 [7]; duodenum): 4%
permeability in PepT1 knockout mice as compared to wild-type mice (PepT1 [7]; ileum): 5%
permeability in PepT1 knockout mice as compared to wild-type mice (PepT1 [7]; jejunum): 12%
Peff (PepT1 [7]; wild-type mice, colon): 6.4 ×10⁻⁶ cm/s
Peff (PepT1 [8]; duodenum): 49 ×10⁻⁶ cm/s
Peff (PepT1 [8]; ileum): 88 ×10⁻⁶ cm/s
Peff (PepT1 [8]; jejunum): 80 ×10⁻⁶ cm/s
Compound: CC1=C(C(=O)O)N2C(=O)[C@@H](NC(=O)[C@H](N)c3ccc(O)cc3)[C@H]2SC1 [cefadroxil]
effect on jejunal permeability of GlySar (PepT1 [2]; co-perfusion of cefadroxil at saturating concentrations, wild-type mice): significantly reduced
decrease of uptake (Caco-2 cells; further reducing the pH to 5.5): 50%
increase of drug uptake (Caco-2 cells; shifting the pH from 7.4 to 6.0): about 4 fold
Michaelis constant (PepT1 [3]): 1.1 mM
Michaelis constant ([4]; ref 12): 5.9 mM
Michaelis constant ([4]; ref 13): 6.6 mM
half-life [9]: ~ 95 min
effect of perfusate pH on effective permeability (PepT1 [10]): no significant differences; also recorded: not significantly affected
binding to plasma proteins [11]: about 20%

effect on jejunal effective permeability of cefadroxil (PepT1 [1]): significantly decreased
Compound: CN(CC(=O)O)C(=O)CN [GlySar, glycylsarcosine] (H-Gly-[Sar]-OH)
increase of permeability (PepT1 [2]; pH 5.5, in situ perfusion, mice): 36%
reduction (systemic exposure) in PepT1 knockout vs. wild-type mice [12]: ~2 fold

Continued, molecule first:

Compound: N[C@@H](Cc1c[nH]cn1)C(=O)O [L-His, L-histidine]
effect on jejunal effective permeability of cefadroxil (PepT1 [1]): no significant effect

Compound: NCC(=O)O [Gly, glycine]
effect on jejunal effective permeability of cefadroxil (PepT1 [1]): no significant effect

Compound: CNC(=O)c1cccnc1 [NMN, N-methylnicotinamide]
effect on jejunal effective permeability of cefadroxil (PepT1 [1]): no significant effect

Compound: CC[N+](CC)(CC)CC [TEA]
effect on jejunal effective permeability of cefadroxil (PepT1 [1]): lack of effect

Compound: CC(=O)OCC1=C(C(=O)O)N2C(=O)[C@@H](NC(=O)Cc3cccs3)[C@H]2SC1 [cephalothin]
effect on jejunal effective permeability of cefadroxil (PepT1 [1]): not affected; also recorded: no significant effect; also recorded: lack of effect

Compound: CN(C)c1nc(N)c(C(=O)NC(=N)N)nc1Cl [DMA, 5-(N,N-dimethyl)amiloride]
effect on PepT1-mediated jejunal permeability/uptake of cefadroxil (PepT1 [13]): inhibited
reduction of cefadroxil permeability (PepT1 [13]): about 60%
